{
  "source": "patent US10654792B2",
  "about": "“Carboxylic acid ester prodrug inhibitors of MEK” (DUQUESNE UNIVERSITY OF THE HOLY GHOST, priority 2012, dated 2020)",
  "key": {"[1]": {"tested_on": "MEK1/2", "assay": "Western blot, cellular pERK1/2 decrease after EGF stimulation", "format": "cell-based", "settings": "MDA-MB-231 cells, compound 10 μM pretreatment 30 min, then EGF 50 ng/mL 15 min", "procedure": "(§1) Western Blot Analysis of Potential MEK-5 Inhibitors\n(§2) The MDA-MB-231 triple negative breast cancer cell line was pretreated with compounds (10 μM) for 30 min followed by stimulation with epidermal growth factor (EGF, 50 ng/mL) for 15 min. Vehicle-treated cells were pretreated with DMSO for 30 min prior to EGF stimulation for 15 min. Protein visualization and quantification analysis was performed using LI-COR Odyssey Imager. *P<0.05 vs. Vehicle, one-way ANOVA followed by Tukey-Kramer test (n=3)"}, "[2]": {"target": "T1, MEK5 (Homo sapiens, UniProt Q13163)", "T1 construct": "The MDA-MB-231 triple negative breast cancer cell line was pretreated with compounds; endogenous in cells; host or cells: MDA-MB-231", "T1 sequence (Q13163 1-448)": "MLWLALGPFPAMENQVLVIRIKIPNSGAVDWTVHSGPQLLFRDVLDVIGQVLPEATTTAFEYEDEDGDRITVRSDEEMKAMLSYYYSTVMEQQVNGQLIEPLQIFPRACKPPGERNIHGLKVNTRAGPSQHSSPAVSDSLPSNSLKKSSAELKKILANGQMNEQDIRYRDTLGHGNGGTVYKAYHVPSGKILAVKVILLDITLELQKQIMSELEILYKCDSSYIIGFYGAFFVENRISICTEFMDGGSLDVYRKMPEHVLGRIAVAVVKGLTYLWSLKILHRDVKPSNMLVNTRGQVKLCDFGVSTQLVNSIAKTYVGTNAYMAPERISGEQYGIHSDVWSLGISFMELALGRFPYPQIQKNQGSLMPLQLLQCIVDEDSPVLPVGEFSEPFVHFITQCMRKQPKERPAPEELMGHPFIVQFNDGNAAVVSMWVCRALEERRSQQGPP", "assay": "Western blot, cellular pERK5 decrease after EGF stimulation", "format": "cell-based", "settings": "MDA-MB-231 cells, compound 10 μM pretreatment 30 min, then EGF 50 ng/mL 15 min", "procedure": "as §1, §2"}},
  "data": [
    {"compound": "COC(=O)c1ccc(F)c(F)c1Nc1ccc(I)cc1F", "note": "[SC-1-72 Ester]", "values": [
      {"measurement": "cellular pERK1/2 decrease (%)", "setting": "[1]", "result": 98.5, "unit": "%"},
      {"measurement": "cellular pERK5 decrease (%)", "setting": "[2]", "result": 20.1, "unit": "%"}
    ]},
    {"compound": "O=C(O)c1ccc(F)c(F)c1Nc1ccc(I)cc1F", "note": "[SC-1-148, 3,4-Difluoro-2-((2-fluoro-4-iodophenyl)amino)benzoic Acid]", "values": [
      {"measurement": "cellular pERK1/2 decrease (%)", "setting": "[1]", "result": 98.5, "unit": "%"},
      {"measurement": "cellular pERK5 decrease (%)", "setting": "[2]", "result": 20.1, "unit": "%"}
    ]},
    {"compound": "O=C(O)c1ccc(F)c(F)c1Nc1ccccc1", "note": "[SC-1-175]", "values": [
      {"measurement": "cellular pERK1/2 decrease (%)", "setting": "[1]", "result": 64.4, "unit": "%"},
      {"measurement": "cellular pERK5 decrease (%)", "setting": "[2]", "result": 2.1, "unit": "%"}
    ]},
    {"compound": "N#CC(=C(/N)Sc1ccccc1N)/C(C#N)=C(\\N)Sc1ccccc1N", "note": "[U0126, reference compound]", "values": [
      {"measurement": "cellular pERK1/2 decrease (%)", "setting": "[1]", "result": 99.72, "unit": "%"},
      {"measurement": "cellular pERK5 decrease (%)", "setting": "[2]", "result": 0.28, "unit": "%"}
    ]},
    {"compound": "CN[C@@H]1C[C@H]2O[C@@](C)([C@@H]1OC)n1c3ccccc3c3c4c(c5c6ccccc6n2c5c31)C(=O)NC4", "note": "[staurosporine, reference compound]", "values": [
      {"measurement": "cellular pERK1/2 decrease (%)", "setting": "[1]", "result": 98.93, "unit": "%"}
    ]}
  ]
}
